Read-outs that look alike come from different tables or passages of the source.
Legend:
skin [1] = test: Tanning response on forearm skin, visual assessment of color development on a 1-6 point scale; assay type: in vivo, human
Protocol: Simple aqueous formulations of dihydroxyacetone and sodium lactate were first evaluated for tanning response on skin. The formulations evaluated and the tanning responses obtained are shown in Tables 3 (formulations) and Table 4 (tanning response of Table 3 formulas).
(§1) An equal amount of each formula (approximately 150 mg.) from Table 3 was applied to 2″×2″ adjacent sections of forearm, allowed to dry and covered with clothing for the duration of the testing. The application areas were visibly the same color prior to treatment with the solutions and this was confirmed via calorimeter readings. Visual assessment of color development was made 24 hours post application using a 1-6 point scale with 1 signifying no color development versus non-treated skin, 3 signifying moderate color development and 6 signifying intensely dark color development. A commercial sunless tanning solution containing 10% DHA was used as a positive control.
as §1, with “As before, an equal” for “An equal”, “Table 5” for “Table 3”, “via colorimeter” for “via calorimeter”, “24 hours and at 48” for “24”, “development.” for “development. A commercial sunless tanning solution containing 10% DHA was used as a positive control.”
A control formula containing 10% DHA, 5% butylene glycol and 5% methylsulfonylmethane was used as a positive control. Past studies as outlined in applicants' co-pending application Ser. No. 10/382,868 titled SUNLESS TANNING PRODUCTS AND PROCESSES, filed on Mar.

[2] = moisture loss figure, Purac citation (Osipow); cited from earlier work
stratum corneum = test: In vivo water binding capacity, Nova Dermal Phase Meter (conductance); details: added to aqueous solutions of DHA
Protocol: In addition to the water activity screening and the tanning experiments conducted with simple aqueous solutions of DHA, sodium lactate, and glycols, objective instrumental testing for in vivo water binding capacity of these DHA-sodium lactate-glycol solutions was conducted.
The Nova Meter measures water content of the top layers of the skin indirectly via conductance measurements.

[3] = Water activity (aw) measured with Aqualab 3TE instrument; assay type: physicochemical; details: for Reduction of water activity compared with other screened materials (in words): additive screening, aqueous solutions
Text: There is no device that can be put into a product to directly measure the water activity. However, the water activity of a product can be determined, indirectly, from the relative humidity of the air surrounding the sample when the air and the sample are at equilibrium. Therefore, the sample must be in an enclosed space where this equilibrium can take place. Once this occurs, the water activity of the sample and the relative humidity of the air are equal. The measurement taken at equilibrium is called an equilibrium relative humidity or ERH.
In practice, water activity can be determined by use of the Aqualab© (Decagon, Inc., Pullman, Wash.) or HygroLab© (Rotronic, Inc., Huntington, N.Y.). For all of the experimental water activity data recorded and detailed in this application, an Aqualab 3T-E instrument with an accuracy of +/−0.003 units and with automatic temperature equilibration (23.7+/−0.2° C.) capability was utilized.
In the AquaLab instrument, a sample is equilibrated within the headspace of a sealed chamber containing a mirror, an optical sensor, an internal fan, and an infrared temperature sensor. At equilibrium, the relative humidity of the air in the chamber is the same as the water activity of the sample. A thermoelectric (Peltier) cooler precisely controls the mirror temperature. An optical reflectance sensor detects the exact point at which condensation first appears. A beam of infrared light is directed onto the mirror and reflected back to a photodetector which detects the change in reflectance when condensation occurs on the mirror. A thermocouple attached to the mirror accurately measures the dew-point temperature. The internal fan is for air circulation, which reduces vapor equilibrium time and controls the boundary layer conductance of the mirror surface. Additionally, a thermopile sensor (infrared thermometer) measures the sample surface temperature. Both the dew point and sample temperatures are then used to determine the water activity. During a water activity measurement, the AquaLab repeatedly determines the dew-point temperature until vapor equilibrium is reached. Since the measurement is based on temperature determination, calibration is not necessary, but measuring a standard salt solution checks proper functioning of the instrument. If there is a problem, the mirror is easily accessible and can be cleaned in a few minutes.
Sunless tanning formulations typically contain 3-10% by weight of DHA as the primary tanning agent dissolved in water. DHA is a water soluble sugar, and, as with other sugars or solutes will decrease the water activity as compared to pure water (aw=1.00). Solutes dilute the water, increasing its entropy and therefore lowering its energy state. These two effects combine to lower the total free energy of the water.
An arbitrary upper limit of 0.900 for aqueous solutions of additives was set for the screening studies. In other words, any cosmetic or pharmaceutical additive investigated must lower the aw of water from 1.000 to 0.900 or below when tested at a concentration that was judged to be the upper practical limit for inclusion based on safety and general cosmetic acceptability.

skin [4] = details: earlier studies of the applicant in prior filings Ser. No. 10/382,868 & 10/694,972; cited from earlier work

CC(O)C(=O)[O-].[Na+] (stereo not drawn) [Sodium Lactate, sodium lactate]
Effect on the tanning response of DHA (skin [1]; added to 5% DHA solutions): enhancement of the tanning response was recorded
Effect on the tanning response of DHA (skin [1]; use concentrations of 0.5-5.0%): Enhance the tanning response of DHA
Water-holding capacity [2]: double the capacity of glycerin
Water holding capacity of the stratum corneum (moisturizing effect) (stratum corneum): improve the water holding capacity of the stratum corneum
Water Activity (aw) ([3]; Sodium Lactate 6.0 % w/w): 0.991
Water Activity (aw) ([3]; Sodium Lactate 12.0 % w/w): 0.944
Water Activity (aw) ([3]; Sodium Lactate 18.0 % w/w): 0.913
Water Activity (aw) ([3]; Sodium Lactate 24.0 % w/w): 0.880
Water Activity (aw) ([3]; Sodium Lactate 30.0 % w/w): 0.840
Reduction of water activity compared with other screened materials (in words) [3]: capable of reducing the water activity to a greater extent than any other material screened
Water activity (Aw) ([3]; aqueous solutions at concentrations of 25% w/w or less): below 0.900
Concentration meeting the screening criterion of reduction of aw to 0.900 or less ([3]; read from Table 2): 18-24%

O=C1CCC(C(=O)[O-])N1.[Na+] (stereo not drawn) [Sodium PCA, sodium pyrrolidone carboxylic acid]
Reduction of water activity compared with other screened materials (in words) [3]: capable of reducing the water activity to a greater extent than any other material screened

OCC(O)CO [glycerol, reference compound]
Water-holding capacity [2]: equal water-holding capacity
Lowering of water activity compared with other glycols (in words) ([3]; 10% in 10% DHA solution, Table 1): lower the water activity to a greater extent than the other glycols evaluated
Effect on the tanning response of DHA (skin [4]): somewhat of an inhibitory effect on the tanning response of DHA

CC(O)C(=O)O (stereo not drawn) [lactic acid]
Effect on the tanning response of DHA (skin [1]; added to 5% DHA solutions): enhancement of the tanning response was recorded
Water-holding capacity [2]: equal water-holding capacity

Reference: patent US8182793B2, “Sunless tanning products and processes” (Concept Laboratories, priority 2004, dated 2012)
